Results as given in US10365289B2 (Max-Planck-Gesellschaft zur Forderung der Wissenschaften …, priority 2014, dated 2019).

Legend:
[1] = described ranking of GA isoforms; cited from earlier work
[2] = target: T1, GID1B based sensor (GID1B.5) (Arabidopsis thaliana, UniProt Q9LYC1, V53A); test: yeast solid media luciferase assay, GID1B based sensor (GID1B.5) with overlapping firefly luciferase fragments; format: cell-based; conditions: GA3 100 μM vs mock (100% ethanol), FIG. 7
T1 construct: a GID1B based sensor with overlapping firefly luciferase fragments (plasmid IR235); expressed in transfected cells; host or cells: Saccharomyces cerevisiae (yeast), plasmid printed as IR235
Description: In order to assess the impact of the presence of overlapping parts of firefly luciferase on the GID1B based sensor (GID1B.5) at the split point, a GID1B based sensor with overlapping firefly luciferase fragments (plasmid IR235) was compared in a Y2H assay to a GID1B based sensor without overlapping firefly luciferase fragments (plasmid IR241).
Four representative colonies were selected and plated onto Nylon membranes as described before. After 3 days at 30° C. the membranes were incubated in selective media containing luciferase substrate for 4 hours in dark at room temperature. Each replicate was subsequently transferred to plates containing selective media supplemented with luciferase substrate. […] Luciferase activity was recorded as indicated before.

[3] = target: T2, Arabidopsis thaliana GID1C based sensor (Arabidopsis thaliana, UniProt Q940G6); test: in planta assay: GA sensor in ga1-3 mutant plants sprayed with GA3, luciferase imaging; format: in vivo; conditions: ga1-3 plants containing the sensor, sprayed with 100 μM GA3 solution vs mock; FIG. 4
T2 construct: expressed in transfected cells; host or cells: Arabidopsis thaliana ga1-3 mutant plants (Ler background), Agrobacterium floral dip, construct IR216 (35S::GID1CLUC in pFK210)
Excerpt: To validate in planta the results obtained in yeast, the inventors introduced the GA sensors under the control of the constitutive viral promoter 35S into Arabidopsis thaliana plants. The constructs IR208 and IR216 were independently introduced using the floral dip method of Agrobacterium-mediated transformation into the Arabidopsis thaliana Ler-1 (Landsberg erecta) wild-type strain and its isogenic ga1-3 mutant strain (containing a deletion in the gene for the enzyme that catalyzes an early step in the synthesis of GA: Sun et al., Plant Cell, 1992, 4, 119-128). Plants were grown in soil under Basta™ selection and short day conditions (8h light/16h dark).
In this case, the Arabidopsis thaliana GID1C based sensor produced a faster and stronger signal than the Arabidopsis thaliana GID1B based sensor. To ascertain whether the reporter system according to the invention could quantitatively report the presence of endogenous bioactive GA isoforms, the inventors grew the Arabidopsis thaliana Ler-1 wild-type plants containing the Arabidopsis thaliana GID1C based sensor along with Arabidopsis thaliana GA3ox1-GUS and GA3ox2-GUS reporter lines. The GA sensor was active in a pattern that indicated the presence of active forms of GA in emerging leaves and at the base and vasculature of older leaves. […]

[4] = target: T3, GID1C based sensor peptide with co-expression of a DELLA protein (GAI) (Arabidopsis thaliana, UniProt Q940G6); test: yeast liquid luciferase assay, GID1C based sensor with co-expression of the DELLA protein GAI; format: cell-based; conditions: Saccharomyces cerevisiae, GAI co-expressed; FIG. 6D
T3 construct: expressed in transfected cells; host or cells: Saccharomyces cerevisiae AH109, plasmids IR214 (GID1CLUC-pDest22) and IR236 (GAI in pDEST32)
Description: Two representative colonies were selected and plated onto Nylon membranes as described before. After 3 days at 30° C. the membranes were incubated in selective media containing luciferase substrate for 4 hours in dark at room temperature. […] Luciferase activity was recorded as indicated before. For liquid assays, the inventors inoculated one representative colony for each version of the sensor in 5 ml of selective media (YNB, MPBlo, supplemented with CSM Trp^−, Bio 101) containing luciferase substrate and grown under shaking at 28° C. for 18 hours. […] Plates were incubated for 16 hours at 28° C. in a cabinet and luciferase activity was recorded during the entire period of the experiment using a Topcount™ device (Perkin Elmer).
First, the coding sequence of the DELLA protein GAI (At1g14920) was cloned into the yeast plasmid pDEST32 (Invitrogen) yielding the construct IR236. Subsequently, yeast cells were transformed with the plasmids IR206 or IR214 in combination with the empty pDEST32 vector or IR236. Following the same approach than described before in Example 3, we assayed 4 GA isoforms, the same four than in the former assay. The experimental setting was the same than in Example 3 with the difference that the selective media used was deficient in Trp and Leu (YNB, MPBlo, supplemented with CSM Trp^−Leu^−, Bio 101) to select for the presence of both plasmids within the yeast cells. […]

T2 sequence (Q940G6 with tags, fused parts or gaps): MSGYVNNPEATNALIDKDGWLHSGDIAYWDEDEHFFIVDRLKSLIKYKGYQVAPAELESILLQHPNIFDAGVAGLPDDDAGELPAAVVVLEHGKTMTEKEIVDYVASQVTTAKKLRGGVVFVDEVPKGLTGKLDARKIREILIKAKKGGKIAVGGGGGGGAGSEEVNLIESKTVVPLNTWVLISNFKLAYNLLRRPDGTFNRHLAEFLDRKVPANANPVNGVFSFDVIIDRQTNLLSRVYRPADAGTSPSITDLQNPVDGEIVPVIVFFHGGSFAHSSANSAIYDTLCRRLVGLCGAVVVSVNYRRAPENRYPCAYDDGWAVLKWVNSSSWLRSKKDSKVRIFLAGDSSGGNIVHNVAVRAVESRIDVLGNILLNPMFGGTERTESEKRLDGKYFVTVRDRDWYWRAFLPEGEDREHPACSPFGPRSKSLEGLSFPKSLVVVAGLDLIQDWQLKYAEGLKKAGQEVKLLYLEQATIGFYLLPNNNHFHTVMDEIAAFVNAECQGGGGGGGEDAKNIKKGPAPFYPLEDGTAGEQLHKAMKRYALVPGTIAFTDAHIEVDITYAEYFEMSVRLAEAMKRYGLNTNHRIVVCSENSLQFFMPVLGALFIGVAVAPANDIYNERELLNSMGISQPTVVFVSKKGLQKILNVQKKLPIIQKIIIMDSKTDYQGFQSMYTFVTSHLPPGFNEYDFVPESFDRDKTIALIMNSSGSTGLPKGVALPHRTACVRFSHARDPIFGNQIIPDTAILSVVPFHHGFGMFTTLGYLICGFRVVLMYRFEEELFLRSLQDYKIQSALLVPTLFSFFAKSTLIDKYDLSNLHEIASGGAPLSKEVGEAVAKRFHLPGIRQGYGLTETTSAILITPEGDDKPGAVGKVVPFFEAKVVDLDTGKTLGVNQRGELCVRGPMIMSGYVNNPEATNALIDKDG
T3 sequence (Q940G6 with tags, fused parts or gaps): as above
T3 sequence (Q9LQT8 2-533 partner limits assumed): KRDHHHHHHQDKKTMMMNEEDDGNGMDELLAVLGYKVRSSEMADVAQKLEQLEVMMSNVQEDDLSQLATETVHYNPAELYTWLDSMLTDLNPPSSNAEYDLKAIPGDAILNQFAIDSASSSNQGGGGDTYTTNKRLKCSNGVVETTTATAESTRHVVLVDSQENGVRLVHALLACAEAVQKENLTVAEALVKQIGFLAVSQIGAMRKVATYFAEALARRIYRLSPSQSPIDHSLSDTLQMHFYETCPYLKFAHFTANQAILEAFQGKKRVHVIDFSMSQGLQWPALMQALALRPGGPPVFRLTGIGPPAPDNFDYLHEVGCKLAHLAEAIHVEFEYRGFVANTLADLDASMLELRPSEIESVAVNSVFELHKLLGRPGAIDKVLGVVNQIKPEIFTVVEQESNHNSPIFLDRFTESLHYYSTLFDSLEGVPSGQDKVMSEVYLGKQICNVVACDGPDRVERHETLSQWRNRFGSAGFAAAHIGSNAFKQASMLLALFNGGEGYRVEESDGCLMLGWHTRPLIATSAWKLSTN
T1 sequence (Q9LYC1 other isoform, or with tags, fused parts or gaps V53A): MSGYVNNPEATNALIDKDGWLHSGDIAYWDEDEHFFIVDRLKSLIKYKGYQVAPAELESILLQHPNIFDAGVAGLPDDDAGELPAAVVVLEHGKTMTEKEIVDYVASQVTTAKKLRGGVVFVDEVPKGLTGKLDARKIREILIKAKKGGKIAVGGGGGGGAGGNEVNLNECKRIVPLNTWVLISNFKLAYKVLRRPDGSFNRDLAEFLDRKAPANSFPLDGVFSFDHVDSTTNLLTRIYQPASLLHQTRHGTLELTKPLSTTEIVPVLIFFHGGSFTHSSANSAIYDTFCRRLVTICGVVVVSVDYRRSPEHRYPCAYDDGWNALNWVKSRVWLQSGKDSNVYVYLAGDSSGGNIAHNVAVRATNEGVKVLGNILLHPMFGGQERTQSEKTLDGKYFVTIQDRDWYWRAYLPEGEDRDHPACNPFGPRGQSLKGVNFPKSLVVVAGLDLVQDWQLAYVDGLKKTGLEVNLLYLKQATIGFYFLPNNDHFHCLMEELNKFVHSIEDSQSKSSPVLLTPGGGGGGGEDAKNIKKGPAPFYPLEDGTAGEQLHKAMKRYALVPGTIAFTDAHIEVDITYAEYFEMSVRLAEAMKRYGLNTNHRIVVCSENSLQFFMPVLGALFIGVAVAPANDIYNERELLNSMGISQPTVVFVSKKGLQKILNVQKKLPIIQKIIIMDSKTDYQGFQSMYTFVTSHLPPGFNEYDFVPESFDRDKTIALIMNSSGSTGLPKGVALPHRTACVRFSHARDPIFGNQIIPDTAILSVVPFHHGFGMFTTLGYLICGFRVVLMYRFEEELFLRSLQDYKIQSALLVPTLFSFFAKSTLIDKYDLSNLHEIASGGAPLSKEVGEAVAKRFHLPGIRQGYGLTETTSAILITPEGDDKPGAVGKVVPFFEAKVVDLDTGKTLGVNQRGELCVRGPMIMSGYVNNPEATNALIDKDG

Row | Structure (SMILES) | biological activity in planta assay [1] | luciferase signal [2] | bioluminescence upon luciferase substrate application [3] | luciferase signal [4]
1 | C=C1C[C@]23C[C@H]1CC[C@H]2[C@@]12CC[C@H](O)[C@@](C)(C(=O)O1)[C@H]2[C@@H]3C(=O)O [GA4] | most biologically active |  |  | 
2 | C=C1C[C@]23C[C@@]1(O)CC[C@H]2[C@@]12CC[C@H](O)[C@@](C)(C(=O)O1)[C@H]2[C@@H]3C(=O)O [GA1] | less activity |  |  | 
3 | C=C1C[C@]23C[C@@]1(O)CC[C@H]2[C@@]12C=C[C@H](O)[C@@](C)(C(=O)O1)[C@H]2[C@@H]3C(=O)O [GA3, gibberellic acid] |  | clearly higher | showed bioluminescence | 
4 | C=C1C[C@]23C[C@H]1CC[C@H]2[C@@]12CC[C@H](O)[C@@](C)(C(=O)O1)[C@H]2[C@@H]3C(=O)OC [GA4-methylester, GA4-methyl ester] | barely active |  |  | triggered luciferase signal
